Laboratory results from ChEMBL document CHEMBL1909046, “DrugMatrix in vitro pharmacology data”.

Legend:
[1] = molecular target: T1, Alpha-2A adrenergic receptor (Homo sapiens, UniProt P08913); type: cell membranes, Sf9, Membrane; conditions: sf9; note: in other assays of this panel Not Active means under 50% inhibition at 10 µM
T1 sequence (P08913 whole entry): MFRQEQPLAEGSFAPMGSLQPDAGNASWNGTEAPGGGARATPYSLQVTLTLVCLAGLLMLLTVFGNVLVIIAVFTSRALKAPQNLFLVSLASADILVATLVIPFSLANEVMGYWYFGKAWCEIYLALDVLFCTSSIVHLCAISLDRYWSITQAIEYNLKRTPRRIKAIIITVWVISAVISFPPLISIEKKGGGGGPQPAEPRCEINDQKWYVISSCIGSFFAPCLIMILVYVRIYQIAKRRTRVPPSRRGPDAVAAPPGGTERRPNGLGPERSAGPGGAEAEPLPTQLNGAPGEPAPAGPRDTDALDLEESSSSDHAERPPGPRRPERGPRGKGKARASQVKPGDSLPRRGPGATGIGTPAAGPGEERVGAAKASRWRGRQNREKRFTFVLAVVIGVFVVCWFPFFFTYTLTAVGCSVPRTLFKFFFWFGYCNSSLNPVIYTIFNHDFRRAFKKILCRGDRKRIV

[2] = molecular target: T2, Alpha-2C adrenergic receptor (Homo sapiens, UniProt P18825); test: DRUGMATRIX: Adrenergic Alpha-2C radioligand binding (ligand: [3H] MK-912); type: cell membranes, Sf9, Membrane; conditions: sf9
T2 sequence (P18825 whole entry): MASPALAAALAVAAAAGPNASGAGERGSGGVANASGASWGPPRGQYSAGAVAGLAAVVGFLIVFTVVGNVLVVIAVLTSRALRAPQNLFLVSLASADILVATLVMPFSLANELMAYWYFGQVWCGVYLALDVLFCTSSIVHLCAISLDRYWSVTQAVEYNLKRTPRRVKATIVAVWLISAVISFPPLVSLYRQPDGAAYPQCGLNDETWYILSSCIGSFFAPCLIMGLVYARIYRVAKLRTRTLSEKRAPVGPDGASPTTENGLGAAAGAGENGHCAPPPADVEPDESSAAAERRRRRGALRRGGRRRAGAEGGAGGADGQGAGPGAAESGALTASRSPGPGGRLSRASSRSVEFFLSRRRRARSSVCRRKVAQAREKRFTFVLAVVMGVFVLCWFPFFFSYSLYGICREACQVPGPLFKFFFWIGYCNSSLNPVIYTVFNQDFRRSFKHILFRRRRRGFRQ

[3] = molecular target: Beta-1 adrenergic receptor (Homo sapiens, UniProt P08588); test: DRUGMATRIX: Adrenergic beta1 radioligand binding (ligand: [125I] Cyanopindolol); type: cell membranes, CHO-K1, Membrane; conditions: cho-k1; Not Active = under 50% inhibition at 10 µM
Sequence of Beta-1 adrenergic receptor (P08588 whole entry): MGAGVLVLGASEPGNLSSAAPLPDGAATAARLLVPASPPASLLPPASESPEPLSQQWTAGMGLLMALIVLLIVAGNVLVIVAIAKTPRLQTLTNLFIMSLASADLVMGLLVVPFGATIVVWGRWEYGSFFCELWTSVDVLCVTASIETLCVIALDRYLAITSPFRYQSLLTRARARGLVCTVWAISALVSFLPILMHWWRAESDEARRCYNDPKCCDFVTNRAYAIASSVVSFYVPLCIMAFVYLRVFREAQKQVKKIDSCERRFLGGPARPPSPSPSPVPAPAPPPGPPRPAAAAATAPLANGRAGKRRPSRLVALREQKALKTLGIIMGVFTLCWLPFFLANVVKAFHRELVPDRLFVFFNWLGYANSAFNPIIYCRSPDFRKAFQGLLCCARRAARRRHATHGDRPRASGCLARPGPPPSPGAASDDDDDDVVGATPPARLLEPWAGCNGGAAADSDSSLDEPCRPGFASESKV

[4] = molecular target: T3, Type-2 angiotensin II receptor (Homo sapiens, UniProt P50052); type: cell-based; conditions: cho-k1; note: in other assays of this panel Not Active means under 50% inhibition at 10 µM
T3 sequence (P50052 whole entry): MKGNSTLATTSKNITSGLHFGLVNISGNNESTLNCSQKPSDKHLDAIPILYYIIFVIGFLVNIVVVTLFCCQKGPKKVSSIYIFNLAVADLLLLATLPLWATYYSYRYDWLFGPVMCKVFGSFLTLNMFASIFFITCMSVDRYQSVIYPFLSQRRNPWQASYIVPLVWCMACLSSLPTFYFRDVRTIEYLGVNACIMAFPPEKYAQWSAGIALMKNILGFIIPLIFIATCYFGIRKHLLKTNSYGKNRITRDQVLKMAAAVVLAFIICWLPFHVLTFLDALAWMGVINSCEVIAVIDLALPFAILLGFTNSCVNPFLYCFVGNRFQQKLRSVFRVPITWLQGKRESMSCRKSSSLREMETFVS

[5] = DRUGMATRIX: Calcium Channel Type L, Phenylalkylamine radioligand binding (ligand: [3H] (-)-Desmethoxyverapamil (D-888)); type: cell membranes, Rattus norvegicus, Wistar, Brain, Membrane; conditions: Not Active = under 50% inhibition at 10 µM
[6] = DRUGMATRIX: GABAA, Flunitrazepam, Central radioligand binding (ligand: [3H] Flunitrazepam); type: cell membranes, Rattus norvegicus, Wistar, Brain, Membrane; conditions: Not Active = under 50% inhibition at 10 µM
Insulin receptor = Insulin receptor (Rattus norvegicus, UniProt P15127); type: cell membranes, Wistar, Liver, Membrane; note: in other assays of this panel Not Active means under 50% inhibition at 10 µM
Sequence of Insulin receptor (P15127 27-759 limits assumed): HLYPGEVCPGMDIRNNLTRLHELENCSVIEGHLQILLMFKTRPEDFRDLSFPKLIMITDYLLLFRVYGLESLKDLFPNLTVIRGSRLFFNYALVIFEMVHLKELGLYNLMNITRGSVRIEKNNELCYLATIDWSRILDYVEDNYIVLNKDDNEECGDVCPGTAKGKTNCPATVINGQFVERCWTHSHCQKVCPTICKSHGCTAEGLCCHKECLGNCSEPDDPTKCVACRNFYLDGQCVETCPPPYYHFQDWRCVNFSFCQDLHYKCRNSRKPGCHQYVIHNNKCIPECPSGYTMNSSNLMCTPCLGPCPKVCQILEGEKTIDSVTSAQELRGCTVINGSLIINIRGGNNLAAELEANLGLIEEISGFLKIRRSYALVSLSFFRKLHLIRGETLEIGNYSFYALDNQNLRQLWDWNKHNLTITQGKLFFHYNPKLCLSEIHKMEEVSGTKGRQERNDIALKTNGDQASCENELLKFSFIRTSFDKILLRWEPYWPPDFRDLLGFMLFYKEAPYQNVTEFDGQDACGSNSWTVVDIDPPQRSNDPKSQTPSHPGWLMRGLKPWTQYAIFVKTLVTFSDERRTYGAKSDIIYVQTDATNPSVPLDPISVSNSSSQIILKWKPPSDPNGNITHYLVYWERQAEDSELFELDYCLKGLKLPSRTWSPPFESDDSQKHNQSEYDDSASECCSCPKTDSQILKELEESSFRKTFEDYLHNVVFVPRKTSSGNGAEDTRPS
Sequence of Insulin receptor (P15127 764-1383 limits assumed): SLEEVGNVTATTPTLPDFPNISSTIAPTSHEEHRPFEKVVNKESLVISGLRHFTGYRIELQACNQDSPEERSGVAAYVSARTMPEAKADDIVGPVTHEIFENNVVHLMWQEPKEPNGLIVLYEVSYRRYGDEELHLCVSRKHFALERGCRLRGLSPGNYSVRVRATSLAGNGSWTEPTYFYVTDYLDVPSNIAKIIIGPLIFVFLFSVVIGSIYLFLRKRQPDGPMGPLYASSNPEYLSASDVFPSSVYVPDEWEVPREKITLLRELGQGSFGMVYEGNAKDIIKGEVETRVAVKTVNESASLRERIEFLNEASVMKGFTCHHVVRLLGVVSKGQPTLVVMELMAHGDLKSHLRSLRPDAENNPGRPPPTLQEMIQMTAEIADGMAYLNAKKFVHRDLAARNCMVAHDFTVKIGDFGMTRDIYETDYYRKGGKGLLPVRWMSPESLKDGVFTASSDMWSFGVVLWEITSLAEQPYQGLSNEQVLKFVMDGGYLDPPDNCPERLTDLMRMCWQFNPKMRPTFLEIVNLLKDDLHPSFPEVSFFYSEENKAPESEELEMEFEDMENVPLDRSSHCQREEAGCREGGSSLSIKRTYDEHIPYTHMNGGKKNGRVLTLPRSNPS

[7] = molecular target: T4, Neuropeptide Y receptor type 2 (Homo sapiens, UniProt P49146); type: cell membranes, Membrane; conditions: kan-ts; note: in other assays of this panel Not Active means under 50% inhibition at 10 µM
T4 sequence (P49146 whole entry): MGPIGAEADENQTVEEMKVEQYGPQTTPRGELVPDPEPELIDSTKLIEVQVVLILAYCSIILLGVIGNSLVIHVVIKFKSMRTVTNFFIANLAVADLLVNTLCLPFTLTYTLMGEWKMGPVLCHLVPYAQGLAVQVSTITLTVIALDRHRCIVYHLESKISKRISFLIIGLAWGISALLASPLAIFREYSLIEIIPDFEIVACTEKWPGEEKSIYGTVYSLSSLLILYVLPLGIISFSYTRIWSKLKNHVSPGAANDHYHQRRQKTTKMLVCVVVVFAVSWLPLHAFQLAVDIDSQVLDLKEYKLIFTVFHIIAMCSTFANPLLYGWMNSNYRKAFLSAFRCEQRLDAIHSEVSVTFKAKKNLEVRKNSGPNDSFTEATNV

[8] = molecular target: Receptor tyrosine-protein kinase erbB-2 (Homo sapiens, UniProt P04626); test: biochemical; type: cell-based, Insect cells; conditions: insect cells
Sequence of Receptor tyrosine-protein kinase erbB-2 (P04626 whole entry): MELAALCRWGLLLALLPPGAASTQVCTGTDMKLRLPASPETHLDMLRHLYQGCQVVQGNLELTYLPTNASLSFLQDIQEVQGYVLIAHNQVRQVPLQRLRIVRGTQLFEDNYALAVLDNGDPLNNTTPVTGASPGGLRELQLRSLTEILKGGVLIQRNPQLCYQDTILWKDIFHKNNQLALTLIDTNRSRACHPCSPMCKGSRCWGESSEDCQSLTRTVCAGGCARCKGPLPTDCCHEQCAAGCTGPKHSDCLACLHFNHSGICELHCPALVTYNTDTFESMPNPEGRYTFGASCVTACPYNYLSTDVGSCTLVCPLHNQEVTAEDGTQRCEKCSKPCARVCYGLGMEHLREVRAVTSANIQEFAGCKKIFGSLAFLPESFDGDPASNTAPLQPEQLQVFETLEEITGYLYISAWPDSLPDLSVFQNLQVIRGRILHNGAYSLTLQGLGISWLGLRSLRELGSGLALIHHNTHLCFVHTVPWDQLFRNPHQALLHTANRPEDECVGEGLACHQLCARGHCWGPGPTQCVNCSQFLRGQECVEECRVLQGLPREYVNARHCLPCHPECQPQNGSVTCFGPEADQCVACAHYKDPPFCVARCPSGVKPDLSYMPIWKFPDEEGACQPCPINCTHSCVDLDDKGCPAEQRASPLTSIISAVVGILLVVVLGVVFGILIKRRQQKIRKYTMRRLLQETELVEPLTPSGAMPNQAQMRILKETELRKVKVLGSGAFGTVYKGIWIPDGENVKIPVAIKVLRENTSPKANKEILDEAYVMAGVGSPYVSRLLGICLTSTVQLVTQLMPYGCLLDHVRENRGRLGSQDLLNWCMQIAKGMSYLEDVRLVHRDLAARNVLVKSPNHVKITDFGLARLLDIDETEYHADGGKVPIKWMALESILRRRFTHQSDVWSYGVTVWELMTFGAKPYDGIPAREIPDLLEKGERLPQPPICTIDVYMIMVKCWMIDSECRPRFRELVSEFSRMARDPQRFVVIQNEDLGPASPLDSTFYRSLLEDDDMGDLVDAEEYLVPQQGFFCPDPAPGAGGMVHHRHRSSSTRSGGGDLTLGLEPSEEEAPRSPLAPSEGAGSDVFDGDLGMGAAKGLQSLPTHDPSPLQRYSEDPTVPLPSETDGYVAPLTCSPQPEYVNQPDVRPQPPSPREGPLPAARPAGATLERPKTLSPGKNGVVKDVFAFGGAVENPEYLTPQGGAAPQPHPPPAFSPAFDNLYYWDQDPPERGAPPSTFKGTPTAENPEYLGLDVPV

[9] = molecular target: 5-hydroxytryptamine receptor 1B (Rattus norvegicus, UniProt P28564); type: cell membranes, Wistar, Cerebral cortex, Membrane; note: in other assays of this panel Not Active means under 50% inhibition at 10 µM
Sequence of 5-hydroxytryptamine receptor 1B (P28564 whole entry): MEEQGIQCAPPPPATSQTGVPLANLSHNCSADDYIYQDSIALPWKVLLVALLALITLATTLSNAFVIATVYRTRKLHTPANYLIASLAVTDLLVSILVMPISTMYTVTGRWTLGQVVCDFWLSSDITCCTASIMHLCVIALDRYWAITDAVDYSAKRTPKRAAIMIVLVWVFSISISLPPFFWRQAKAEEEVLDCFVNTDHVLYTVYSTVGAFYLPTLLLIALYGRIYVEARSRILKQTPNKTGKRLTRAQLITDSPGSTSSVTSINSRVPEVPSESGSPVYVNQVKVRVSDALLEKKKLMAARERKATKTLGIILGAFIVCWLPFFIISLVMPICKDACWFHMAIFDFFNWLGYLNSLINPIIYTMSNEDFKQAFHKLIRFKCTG

Adenosine receptor A1 = molecular target: T5, Adenosine receptor A1 (Homo sapiens, UniProt P30542); type: cell membranes, CHO, Membrane; conditions: cho
T5 sequence (P30542 whole entry): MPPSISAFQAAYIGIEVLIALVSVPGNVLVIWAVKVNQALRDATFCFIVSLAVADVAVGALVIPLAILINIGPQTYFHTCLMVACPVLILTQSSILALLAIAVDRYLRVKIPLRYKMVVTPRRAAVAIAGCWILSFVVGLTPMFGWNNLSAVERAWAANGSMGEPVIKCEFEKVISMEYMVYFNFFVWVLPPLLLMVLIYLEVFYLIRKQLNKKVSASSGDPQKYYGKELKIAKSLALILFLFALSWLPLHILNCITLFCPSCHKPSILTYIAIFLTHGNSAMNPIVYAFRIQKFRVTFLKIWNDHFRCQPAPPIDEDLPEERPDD

[10] = molecular target: Voltage-gated inwardly rectifying potassium channel KCNH2 (Homo sapiens, UniProt Q12809); conditions: hek293; note: in other assays of this panel Not Active means under 50% inhibition at 10 µM
Sequence of Voltage-gated inwardly rectifying potassium channel KCNH2 (Q12809 whole entry): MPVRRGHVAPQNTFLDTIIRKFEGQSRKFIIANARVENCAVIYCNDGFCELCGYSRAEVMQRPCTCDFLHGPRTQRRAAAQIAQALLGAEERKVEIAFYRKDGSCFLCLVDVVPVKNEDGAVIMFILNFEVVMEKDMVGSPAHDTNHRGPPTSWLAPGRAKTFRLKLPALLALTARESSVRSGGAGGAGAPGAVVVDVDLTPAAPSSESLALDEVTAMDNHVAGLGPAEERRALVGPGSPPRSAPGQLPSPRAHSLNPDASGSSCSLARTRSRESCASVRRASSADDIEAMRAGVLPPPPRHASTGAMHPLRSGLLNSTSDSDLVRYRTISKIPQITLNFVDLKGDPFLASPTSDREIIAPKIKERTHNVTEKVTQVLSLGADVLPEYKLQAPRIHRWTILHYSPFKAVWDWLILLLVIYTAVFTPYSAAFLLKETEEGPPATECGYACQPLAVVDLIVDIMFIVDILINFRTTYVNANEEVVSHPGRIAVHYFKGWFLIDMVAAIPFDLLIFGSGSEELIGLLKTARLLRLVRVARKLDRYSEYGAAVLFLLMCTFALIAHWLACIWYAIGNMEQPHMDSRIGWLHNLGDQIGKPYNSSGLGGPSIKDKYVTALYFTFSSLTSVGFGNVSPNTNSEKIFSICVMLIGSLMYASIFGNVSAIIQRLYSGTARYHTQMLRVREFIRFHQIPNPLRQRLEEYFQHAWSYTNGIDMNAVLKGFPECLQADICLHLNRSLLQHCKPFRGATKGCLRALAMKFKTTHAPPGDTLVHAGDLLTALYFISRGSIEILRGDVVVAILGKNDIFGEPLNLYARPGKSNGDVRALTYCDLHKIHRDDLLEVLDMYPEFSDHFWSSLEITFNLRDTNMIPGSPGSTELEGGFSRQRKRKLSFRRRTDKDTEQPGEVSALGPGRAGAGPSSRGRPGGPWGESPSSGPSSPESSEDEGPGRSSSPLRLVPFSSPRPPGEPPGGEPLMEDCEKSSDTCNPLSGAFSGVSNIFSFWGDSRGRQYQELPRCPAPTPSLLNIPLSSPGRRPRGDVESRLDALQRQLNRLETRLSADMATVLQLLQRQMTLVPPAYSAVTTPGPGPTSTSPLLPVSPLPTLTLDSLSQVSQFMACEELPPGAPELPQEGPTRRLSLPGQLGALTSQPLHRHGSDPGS

CN(C)[C@@H]1C(O)=C(C(N)=O)C(=O)[C@@]2(O)C(O)=C3C(=O)c4c(O)cccc4[C@@](C)(O)[C@H]3[C@H](O)[C@@H]12 [OXYTETRACYCLINE]
Not Active: IC50 [1] | IC50 [2] | IC50 [3] | IC50 [4] | IC50 [5] | Ki [5] | IC50 [6] | Ki [6] | IC50 (Insulin receptor) | IC50 [7] | IC50 [8] | IC50 [9] | IC50 (Adenosine receptor A1) | IC50 [10] | Ki [10]

CC(C)(S)[C@@H](N)C(=O)O [PENICILLAMINE]
Not Active: IC50 [1] | IC50 [2] | IC50 [3] | IC50 [4] | IC50 [5] | Ki [5] | IC50 [6] | Ki [6] | IC50 (Insulin receptor) | IC50 [7] | IC50 [8] | IC50 [9] | IC50 (Adenosine receptor A1) | IC50 [10] | Ki [10]

CC(=O)CCCCn1c(=O)c2c(ncn2C)n(C)c1=O [PENTOXIFYLLINE]
Not Active: IC50 [1] | IC50 [2] | IC50 [3] | IC50 [4] | IC50 [5] | Ki [5] | IC50 [6] | Ki [6] | IC50 (Insulin receptor) | IC50 [7] | IC50 [8] | IC50 [9] | IC50 (Adenosine receptor A1) | IC50 [10] | Ki [10]

O=C1NC(=O)C(c2ccccc2)(c2ccccc2)N1 [PHENYTOIN]
Not Active: IC50 [1] | IC50 [2] | IC50 [3] | IC50 [4] | IC50 [5] | Ki [5] | IC50 [6] | Ki [6] | IC50 (Insulin receptor) | IC50 [7] | IC50 [8] | IC50 [9] | IC50 (Adenosine receptor A1) | IC50 [10] | Ki [10]

CNC(=O)Oc1ccc2c(c1)[C@]1(C)CCN(C)[C@@H]1N2C [PHYSOSTIGMINE]
Not Active: IC50 [1] | IC50 [2] | IC50 [3] | IC50 [4] | IC50 [5] | Ki [5] | IC50 [6] | Ki [6] | IC50 (Insulin receptor) | IC50 [7] | IC50 [8] | IC50 [9] | IC50 (Adenosine receptor A1) | IC50 [10] | Ki [10]

C=C(C)[C@@H]1[C@H]2OC(=O)[C@@H]1[C@]1(O)C[C@H]3O[C@]34C(=O)O[C@H]2[C@]14C [PICROTOXININ]
Not Active: IC50 [1] | IC50 [2] | IC50 [3] | IC50 [4] | IC50 [5] | Ki [5] | IC50 [6] | Ki [6] | IC50 (Insulin receptor) | IC50 [7] | IC50 [8] | IC50 [9] | IC50 (Adenosine receptor A1) | IC50 [10] | Ki [10]

CN1C(C(=O)Nc2ccccn2)=C(O)c2ccccc2S1(=O)=O [PIROXICAM]
Not Active: IC50 [1] | IC50 [2] | IC50 [3] | IC50 [4] | IC50 [5] | Ki [5] | IC50 [6] | Ki [6] | IC50 (Insulin receptor) | IC50 [7] | IC50 [8] | IC50 [9] | IC50 (Adenosine receptor A1) | IC50 [10] | Ki [10]
